These results are taken from patent US12251427B2, “Reduced oxygen carriers and their use for the treatment of carboxyhemoglobinemia” (priority 2016, dated 2025).

In series [1] the test system is isolated liver mitochondria. The series is described as follows: Mitochondrial respiration, Clark-type oxygen electrode, isolated liver mitochondria. The arrangement: species or system rat. The note with it: for reduction of respiration: tissue not specified. How it is done: Mitochondrial respiration was measured before and after CO gas exposure in a Clark-type oxygen electrode respirometry system. The effects of infusion of both reduced hemoglobin and myoglobin were evaluated. Fresh liver was collected from a normal rat, and mitochondria were isolated through differential centrifugation. For left ventricle (LV) tissue, fresh LV was collected from a normal rat and then homogenized. The resulting mitochondria and LV tissue was put into the Clark-type electrode air tight reaction chamber, then substrates (succinate (mitochondria) or malate and pyruvate (LV) and ADP) were added. Mitochondria respired to 0% oxygen and then the system was reoxygenated with a pipetted injection of room air. Mitochondria respired back down to the desired 02 concentration. At this point, CO was added, either in gas form or saturated PBS solution. The system was then reoxygenated, and respiration occurred down to 0%. These rates of respiration were compared with pre-CO exposure. The reason for the first reoxygenation step was to more equally compare rates of mitochondria that have experienced some hypoxia, which can damage their function. After this was completed, CO scavenging agents were added, the system was reoxygenated and this final rate of respiration was compared both to pre-CO and post-CO respiration.
CO was then infused, the system was reoxygenated, and rates of respiration were compared. After respiration to 0% 02, myoglobin was infused, the system was reoxygenated and the rates were compared.
CO poisoning has long term effects on patients, and one theory is the poisoning of mitochondria leads to generation of increased reactive oxygen species (ROS) through the inhibition of complex IV of the electron transport chain. A model to measure the amount of inhibition produced by CO exposure and quantify it through respiratory rates was developed. In a Clark electrode, the oxygen respiration of isolated mitochondria from rat livers and left ventricle (LV) homogenate was measured, with the addition of the substrates succinate and ADP to measure maximal respiration. […] This effect was stronger in more hypoxic states, consistent with the known competition between CO and O2 for binding at the heme in cytochrome c oxidase (62% reduction in hypoxia versus ˜50% in normoxia).

The subject of another series is LV homogenate. Put plainly: Cardiac tissue respiration, Clark-type oxygen electrode, LV homogenate. The arrangement: species or system rat. The method, then: Mitochondrial respiration was measured before and after CO gas exposure in a Clark-type oxygen electrode respirometry system. The effects of infusion of both reduced hemoglobin and myoglobin were evaluated. Fresh liver was collected from a normal rat, and mitochondria were isolated through differential centrifugation. For left ventricle (LV) tissue, fresh LV was collected from a normal rat and then homogenized. The resulting mitochondria and LV tissue was put into the Clark-type electrode air tight reaction chamber, then substrates (succinate (mitochondria) or malate and pyruvate (LV) and ADP) were added. Mitochondria respired to 0% oxygen and then the system was reoxygenated with a pipetted injection of room air. Mitochondria respired back down to the desired 02 concentration. […]
CO poisoning has long term effects on patients, and one theory is the poisoning of mitochondria leads to generation of increased reactive oxygen species (ROS) through the inhibition of complex IV of the electron transport chain. A model to measure the amount of inhibition produced by CO exposure and quantify it through respiratory rates was developed. In a Clark electrode, the oxygen respiration of isolated mitochondria from rat livers and left ventricle (LV) homogenate was measured, with the addition of the substrates succinate and ADP to measure maximal respiration. […]

For series [2] the following is noted: cited from earlier work; for Kd: CO; for kon: rate of CO binding; for koff: rate of CO dissociation.
The subject of series [3] is mice exposed to 30,000 ppm (3%) CO gas. Put plainly: Severe CO poisoning mouse model: survival and hemodynamics. In kind it is in vivo. The note with it: for effect on hemodynamic collapse (heart rate, mean arterial blood pressure) induced by CO: infusion after 4.5 minutes of 3% CO; for mortality: 3% CO 4.5 minutes. How it is done:
To establish a model for cardiovascular and mortality end points, tracheally intubated, ventilated, anesthetized mice were exposed to 30,000 ppm (3%) CO gas, with 21% oxygen and 1.5% isoflurane for 4.5 minutes. Mice were surgically instrumented with placement of jugular venous (for infusion of drug) and carotid arterial (for blood pressure and heart rate monitoring) catheters. In this model, there was 88.2% (15/17) mortality in a group infused with 300 μL of PBS post exposure, while all mice that received an infusion of 11 mM myoglobin survived (0% mortality; n=5). Survival of mice infused with myoglobin was due to the reversal in hemodynamic collapse and bradycardia induced by CO (FIG. 5).
Tracheally intubated, ventilated, anesthetized mice were exposed to 30,000 ppm (3%) CO gas, with 21% oxygen and 1.5% isoflurane for 4.5 minutes. Mice were surgically instrumented with placement of jugular venous (for infusion of drug) and carotid arterial (for blood pressure and heart rate monitoring) catheters. In this model, all mice that received PEG-Hb (n=3) survived. The concentration infused was 10 mM at approximately 200 to 250 microliters volume.

The subject of series [4] is HbCO. Put plainly: Severe CO poisoning mouse model: HbCO level by spectrometry. The series is classed as in vivo, mice. How it is done:
To establish a model for cardiovascular and mortality end points, tracheally intubated, ventilated, anesthetized mice were exposed to 30,000 ppm (3%) CO gas, with 21% oxygen and 1.5% isoflurane for 4.5 minutes. Mice were surgically instrumented with placement of jugular venous (for infusion of drug) and carotid arterial (for blood pressure and heart rate monitoring) catheters.
(§1) Through the jugular venous catheter, the HbCO level was sampled using spectrometry. […] Mouse half-life for CO is much faster than for humans.
Tracheally intubated, ventilated, anesthetized mice were exposed to 30,000 ppm (3%) CO gas, with 21% oxygen and 1.5% isoflurane for 4.5 minutes. Mice were surgically instrumented with placement of jugular venous (for infusion of drug) and carotid arterial (for blood pressure and heart rate monitoring) catheters. […] The concentration infused was 10 mM at approximately 200 to 250 microliters volume.
as §1

The nature of series [5]: Safety of oxygen carriers in healthy mice. The series is classed as in vivo. The note with it: for tolerability of infusion: retro-orbital injection, 8-12 mM, observed for 48 hours; for blood chemistries: serum at 48 hours; for hematology profile: whole blood at 48 hours. How it is done: Healthy mice were anesthetized with 3% isoflurane gas and myoglobin and hemoglobin were injected into the retro-orbital space. […] At 48 hours, the animals were sacrificed, their serum was analyzed for blood chemistries and whole blood was tested for complete blood count.

Series [6] concerns HbCO. The series is described as follows: In vitro model of CO poisoning: CO scavenging from HbCO / carboxylated RBCs. The series is classed as biochemical. The method, then:
FIGS. 4A-4C are graphs showing the in vitro binding of CO from hemoglobin by wild type equine myoglobin. PBS or myoglobin (100 μL) was infused into a solution containing carboxylated red blood cells in the presence of 5 mM sodium dithionite at 37° C. Samples were taken from the reaction mixture at several time points and the RBCs were separated from the supernatant (containing the Mb) by centrifugation. The amount of HbCO/MbCO in each fraction was determined by UV-vis spectroscopy. (FIG. 4A) Carboxylated RBCs mixed with PBS. (FIG. 4B and FIG. 4C) Two sample experiments where different amounts of carboxylated RBCs were mixed with Mb. […]
Oxygenated or deoxygenated myoglobin (Mb) was prepared following the same procedure as that described for the experiments with pure Hb. In some experiments, after initiating the reaction, red cells were separated from Mb to measure absorbance spectra. […] Hb absorbance in the lysed RBC solution was measured with the Cary 50 spectrophotometer in a 1 cm path length cuvette. This cycle was repeated six times, each 1.5-5 minutes, giving six absorbance measurements of the Hb. […] The time when absorbance of hemoglobin was measured in the reaction was assumed to be the time elapsed after injection of Mb to 15 or 30 seconds after the start of centrifugation (for 30 or 60 second centrifugation durations, respectively). […]

In the case of `[C-]#[O+]` [CO, carbon monoxide], the “decrease of respiration from pre-CO (maximal) respiration” value is listed as 60.5% in series [1] (CO gas versus room air) and 75.6% in the series on LV homogenate (CO gas versus air). Moreover, the results for the reduction of respiration in series [1] (hypoxia) and in series [1] (normoxia) were 62% and roughly 50%, respectively.

By Kd is commonly meant the free concentration of one partner at which half of the binding sites on the other are occupied at equilibrium, for simple one-to-one binding. The term kon denotes a measure of how fast the partners come together. As usually defined, the koff is a measure of how fast the partners let go of each other. For “Human Hb (alpha subunit, R-state): human hemoglobin alpha subunit, R-state”, in series [2], the Kd is 2 nM, the on-rate constant (kon) was 6e+06 M⁻¹ s⁻¹ and the dissociation rate constant (koff) was 0.012 s⁻¹.

Turning to “Human Hb (alpha subunit, T-state): human hemoglobin alpha subunit, T-state”, in series [2], the Kd was 1750 nM, the kon is 120000 M⁻¹ s⁻¹ and the koff is 0.21 s⁻¹.

For the molecule “Human Hb (beta subunit, R-state): human hemoglobin beta subunit, R-state”, in series [2], the equilibrium dissociation constant (Kd) is 0.946 nM, the kon was 7.4e+06 M⁻¹ s⁻¹ and the dissociation rate constant (koff) was 0.007 s⁻¹.

Turning to “Human Hb (beta subunit, T-state): human hemoglobin beta subunit, T-state”, in series [2], the Kd was 3800 nM, the kon was 50000 M⁻¹ s⁻¹ and the koff is 0.19 s⁻¹.

As to “PEG-Hb: surface conjugation of polyethylene glycol to human hemoglobin; artificial oxygen carrier”, the survival entry in series [3] (10 mM, approximately 200 to 250 microliters, n=3) is “survived”. Besides, in series [3], the “effect on hemodynamic collapse (heart rate, mean arterial blood pressure) induced by CO” value (“effect on hemodynamic collapse” below) is reported as “restored”. Further, the HbCO level is given as 66% in the series on HbCO [4] (five minutes after infusion, Example 9) and 62% in the series with HbCO [4] (ten minutes after treatment, Example 9).

On to “hemoglobin: hemoglobin, natural oxygen carrier, infused in reduced (deoxy) form as CO scavenger”, for which the survival entry in series [3] (infused with <4 mM) is listed as “died”. Further, the survival entry in series [3] (infused with ≥4 mM) is listed as “all survived”. For the same molecule, the “effect on hemodynamic collapse” value in series [3] is listed as “reversed”. Also, in series [5], the tolerability of infusion result was “well tolerated”; the blood chemistries entry is “normal kidney and liver function”; the hematology profile result is given as “only a slight decline in platelets”. Also, the “increase of respiration from the CO inhibited rate” value in series [1] (0.5 equimolar, after CO gas) was found to be 95%.

B1: Equine Myoglobin: wild type equine myoglobin, natural oxygen carrier, used in reduced (deoxy) form as CO scavenger (protein, UniProt P68082 2-154, looked up)
Myoglobin: GLSDGEWQQVLNVWGKVEADIAGHGQEVLIRLFTGHPETLEKFDKFKHLKTEAEMKASEDLKKHGTVVLTALGGILKKKGHHEAELKPLAQSHATKHKIPIKYLEFISDAIIHVLHSKHPGDFGADAQGAMTKALELFRNDIAAKYKELGFQG
modifications: deoxy form
notes: wild type equine myoglobin, natural oxygen carrier, used in reduced (deoxy) form as CO scavenger
As a reminder, the mortality is the share of the test organisms that died. A lower mortality goes with more survivors. Take B1: in the series on HbCO [6] (100% HbCO, anaerobic, added in a 1:1 ratio), the “HbCO reduced, CO bound by myoglobin” value is listed as “more than half”. In the series with HbCO [6] (added in deficit: 110.8 μM HbCO versus 85.3 μM deoxy-myoglobin), the HbCO concentration reduced result is listed as “one third”. Also, in series [3] (concentration greater than 11 mM, n=10), the survival amounted to 100%. The survival in series [3] (concentrations less than 11 mM, n=4) came out at 0%. Also, in series [3] (infused concentration), the “concentration needed to reverse the hemodynamic collapse induced by severe CO poisoning” value is on record as “greater than 11 mM”. In series [3], the “effect on hemodynamic collapse” value is “reversal”. For the same molecule, the “effect on hemodynamic collapse” value in series [3] (listed as reduced myoglobin) is on record as “restoration”. Besides, the mortality in series [3] (infusion of 11 mM, n=5) worked out at 0%. Besides, the mortality in series [3] (infusion of 300 μL of 11.5 mM reduced form) was 0%. Also, in the series with HbCO [4] (five minutes after infusion, Example 4), the HbCO level amounted to 65.04%. In addition, the HbCO level in the series with HbCO [4] (ten minutes after treatment, Example 4) was determined as 52.8%. Also, in series [5], the tolerability of infusion entry is reported as “well tolerated”; the blood chemistries result was “normal kidney and liver function”; the hematology profile entry is on record as “only a slight decline in platelets”. The “increase of respiration from the CO inhibited rate” value with LV homogenate (0.5 equimolar, after CO gas) is listed as 199%. Moreover, in series [2] (CO versus O2), the “affinity for CO relative to oxygen” value is 60 fold. Besides, in series [2], the Kd is 68.8 nM, the kon is 510000 M⁻¹ s⁻¹ and the off-rate (koff) is 0.035 s⁻¹.
